Values of other authors as cited in patent publication US20170209372A1, “A Method of Preparing Amorphous Solid Dispersion in Submicron Range by Co-Precipitation” (HOVIONE INTERNATIONAL LTD, priority 2014, published 2017).

| Compound | Log P |
| --- | --- |
| CCC(C)n1ncn(-c2ccc(N3CCN(c4ccc(OCC5COC(Cn6cncn6)(c6ccc(Cl)cc6Cl)O5)cc4)CC3)cc2)c1=O (stereo not drawn) [Itraconazole] | 4.4 |
| NC(=O)N1c2ccccc2C=Cc2ccccc21 [Carbamazepine] | ~2.6 |
| C(=C\c1ccccc1)/CN1CCN(C(c2ccccc2)c2ccccc2)CC1 [Cinnarizine] | ~5.77 |
